In PMC7093416, “Selective USP7 inhibition elicits cancer cell killing through a p53-dependent mechanism” (Scientific Reports, 2020):

Tested on: panel of 484 cancer cell lines
Test: PRISM cancer cell line profiling, 5 days
Assay type: cell-based
Parameters: AUC: unit not given beside the values
Method: Cancer cell line profiling was performed using the Broad’s PRISM platform. Cell treatment and data analysis were performed as described in Yu et al[42]. Raw Luminex signal was converted to AUC values for each cell line as described. The resulting AUC profile for each compound was modeled against DepMap using the limma package in R[71]. Because hotspot mutation analysis was performed against DepMap, TP53 annotations in Fig. 6c,d are directly from DepMap.

## CN1CCN(CCC(=O)Nc2ccc3c(=O)n(CC4(O)CCN(C(=O)[C@H](CCCNC(=O)c5ccc6c(Cl)c7c(nc6c5)CCCC7)Cc5ccccc5)CC4)cnc3c2)CC1 [XL177B]
RT112_URINARY_TRACT
  AUC: 0.9816
RVH421_SKIN
  AUC: 0.8995
S117_SOFT_TISSUE
  AUC: 0.9955
SBC5_LUNG
  AUC: 1.053
SCABER_URINARY_TRACT
  AUC: 1.101
SCC25_UPPER_AERODIGESTIVE_TRACT
  AUC: 0.9004
SF126_CENTRAL_NERVOUS_SYSTEM
  AUC: 0.9271
SF295_CENTRAL_NERVOUS_SYSTEM
  AUC: 1.235
SF539_CENTRAL_NERVOUS_SYSTEM
  AUC: 0.9498
SH4_SKIN
  AUC: 0.9224
SH10TC_STOMACH
  AUC: 1.086
SIMA_AUTONOMIC_GANGLIA
  AUC: 1.191
SJSA1_BONE
  AUC: 1.13
SKES1_BONE
  AUC: 0.9809
SKHEP1_LIVER
  AUC: 0.9481
SKLU1_LUNG
  AUC: 1.195
SKMEL2_SKIN
  AUC: 0.945
SKMEL3_SKIN
  AUC: 1.224
SKMEL5_SKIN
  AUC: 1.137
SKMEL24_SKIN
  AUC: 1.275
SKMEL30_SKIN
  AUC: 1.1049
SKMES1_LUNG
  AUC: 1.035
SKNAS_AUTONOMIC_GANGLIA
  AUC: 1.162
SKNBE2_AUTONOMIC_GANGLIA
  AUC: 0.9661
SKOV3_OVARY
  AUC: 1.113
SKUT1_SOFT_TISSUE
  AUC: 1.098
SNB75_CENTRAL_NERVOUS_SYSTEM
  AUC: 1.029
SNGM_ENDOMETRIUM
  AUC: 1.214
SNU46_UPPER_AERODIGESTIVE_TRACT
  AUC: 1.023
SNU61_LARGE_INTESTINE
  AUC: 1.357
SNU81_LARGE_INTESTINE
  AUC: 1.469
SNU213_PANCREAS
  AUC: 0.9253
SNU245_BILIARY_TRACT
  AUC: 1.172
SNU308_BILIARY_TRACT
  AUC: 1.2193
SNU398_LIVER
  AUC: 1.038
SNU407_LARGE_INTESTINE
  AUC: 0.8767
SNU410_PANCREAS
  AUC: 1.127
SNU423_LIVER
  AUC: 1.115
SNU449_LIVER
  AUC: 0.9807
SNU466_CENTRAL_NERVOUS_SYSTEM
  AUC: 0.8672
SNU601_STOMACH
  AUC: 1.056
SNU668_STOMACH
  AUC: 0.9502
SNU685_ENDOMETRIUM
  AUC: 0.9823
SNU719_STOMACH
  AUC: 1.037
SNU738_CENTRAL_NERVOUS_SYSTEM
  AUC: 1.115
SNU761_LIVER
  AUC: 1.164
SNU840_OVARY
  AUC: 1.115
SNU869_BILIARY_TRACT
  AUC: 1.118
SNU886_LIVER
  AUC: 1.231
SNU1041_UPPER_AERODIGESTIVE_TRACT
  AUC: 1.134
SNU1066_UPPER_AERODIGESTIVE_TRACT
  AUC: 1.18
SNU1076_UPPER_AERODIGESTIVE_TRACT
  AUC: 0.9825
SNU1077_ENDOMETRIUM
  AUC: 1.083
SNU1079_BILIARY_TRACT
  AUC: 1.166
SNU1105_CENTRAL_NERVOUS_SYSTEM
  AUC: 1.105
SNU1196_BILIARY_TRACT
  AUC: 1.09
SNU1214_UPPER_AERODIGESTIVE_TRACT
  AUC: 0.9564
SNUC2A_LARGE_INTESTINE
  AUC: 1.042
SNUC4_LARGE_INTESTINE
  AUC: 1.117
SNUC5_LARGE_INTESTINE
  AUC: 1.097
SQ1_LUNG
  AUC: 1.099
SUIT2_PANCREAS
  AUC: 1.021
SW480_LARGE_INTESTINE
  AUC: 1.084
SW579_THYROID
  AUC: 1.209
SW620_LARGE_INTESTINE
  AUC: 1.165
SW780_URINARY_TRACT
  AUC: 1.236
SW837_LARGE_INTESTINE
  AUC: 1.0717
SW900_LUNG
  AUC: 1.235
SW948_LARGE_INTESTINE
  AUC: 1.132
SW1088_CENTRAL_NERVOUS_SYSTEM
  AUC: 1.121
SW1271_LUNG
  AUC: 1.015
SW1353_BONE
  AUC: 0.6793
SW1573_LUNG
  AUC: 1.097
SW1710_URINARY_TRACT
  AUC: 1.102
SW1990_PANCREAS
  AUC: 1.083
T3M10_LUNG
  AUC: 1.12
T24_URINARY_TRACT
  AUC: 1.071
T47D_BREAST
  AUC: 1.066
T98G_CENTRAL_NERVOUS_SYSTEM
  AUC: 0.9969
TCCPAN2_PANCREAS
  AUC: 1.118
TCCSUP_URINARY_TRACT
  AUC: 1.104
TE1_OESOPHAGUS
  AUC: 1.328
TE4_OESOPHAGUS
  AUC: 1.033
TE5_OESOPHAGUS
  AUC: 0.9565
TE6_OESOPHAGUS
  AUC: 1.06
TE8_OESOPHAGUS
  AUC: 0.9218
TE9_OESOPHAGUS
  AUC: 1.298
TE10_OESOPHAGUS
  AUC: 0.9856
TE11_OESOPHAGUS
  AUC: 1.076
TEN_ENDOMETRIUM
  AUC: 0.9874
TM31_CENTRAL_NERVOUS_SYSTEM
  AUC: 1.105
TM87_SOFT_TISSUE
  AUC: 1.039
TOV21G_OVARY
  AUC: 0.7718
TOV112D_OVARY
  AUC: 0.9778
TT2609C02_THYROID
  AUC: 1.023
TT_OESOPHAGUS
  AUC: 1.189
TT_THYROID
  AUC: 0.9532
TUHR4TKB_KIDNEY
  AUC: 1.093
U2OS_BONE
  AUC: 1.264
U118MG_CENTRAL_NERVOUS_SYSTEM
  AUC: 1.3332
U251MG_CENTRAL_NERVOUS_SYSTEM
  AUC: 1.04
UACC62_SKIN
  AUC: 0.9925
UACC257_SKIN
  AUC: 0.9688
UBLC1_URINARY_TRACT
  AUC: 1.0896
UMUC1_URINARY_TRACT
  AUC: 1.045
UO31_KIDNEY
  AUC: 1.143
VMCUB1_URINARY_TRACT
  AUC: 0.9508
VMRCRCW_KIDNEY
  AUC: 1.069
VMRCRCZ_KIDNEY
  AUC: 1.083
WM88_SKIN
  AUC: 1.093
WM793_SKIN
  AUC: 1.133
WM983B_SKIN
  AUC: 1.143
WM1799_SKIN
  AUC: 0.7611
WM2664_SKIN
  AUC: 1.168
YAPC_PANCREAS
  AUC: 1.439
YD8_UPPER_AERODIGESTIVE_TRACT
  AUC: 1.127
YD10B_UPPER_AERODIGESTIVE_TRACT
  AUC: 0.9769
YD15_SALIVARY_GLAND
  AUC: 0.9723
YD38_UPPER_AERODIGESTIVE_TRACT
  AUC: 1.117
YH13_CENTRAL_NERVOUS_SYSTEM
  AUC: 1.068
YKG1_CENTRAL_NERVOUS_SYSTEM
  AUC: 1.107
ZR751_BREAST
  AUC: 0.9538
